Measured values from article PMC7753999, “Molecular docking‐assisted screening reveals tannic acid as a natural protein disulphide isomerase inhibitor with antiplatelet and antithrombotic activities” (Journal of Cellular and Molecular Medicine, 2020).

Legend:
ERp57 = target: T1, ERp57 (Homo sapiens, UniProt P30101); experiment: Di-E-GSSG fluorescence reductase assay, recombinant enzyme […]; format: biochemical
T1 construct: gene PDIA3
T1 sequence (P30101 25-505): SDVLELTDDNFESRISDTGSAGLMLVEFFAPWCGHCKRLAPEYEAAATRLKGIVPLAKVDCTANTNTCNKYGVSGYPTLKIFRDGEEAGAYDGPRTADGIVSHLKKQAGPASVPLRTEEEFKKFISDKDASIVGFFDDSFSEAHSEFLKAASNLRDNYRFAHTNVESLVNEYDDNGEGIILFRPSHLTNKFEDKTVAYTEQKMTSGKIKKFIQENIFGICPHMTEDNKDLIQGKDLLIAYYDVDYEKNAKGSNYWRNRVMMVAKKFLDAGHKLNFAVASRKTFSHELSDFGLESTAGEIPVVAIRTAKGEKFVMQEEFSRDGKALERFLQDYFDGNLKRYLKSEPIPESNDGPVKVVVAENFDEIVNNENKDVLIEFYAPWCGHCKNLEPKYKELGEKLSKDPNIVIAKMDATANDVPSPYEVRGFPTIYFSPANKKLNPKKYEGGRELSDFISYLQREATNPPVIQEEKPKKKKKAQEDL

[1] = target: T2, Protein disulphide isomerase (PDI) (Homo sapiens, UniProt P07237); experiment: SPR with immobilized recombinant human PDI; also inhibits in Di-E-GSSG reductase and insulin reduction assays; format: binding
T2 construct: gene P4HB
T2 sequence (P07237 18-508): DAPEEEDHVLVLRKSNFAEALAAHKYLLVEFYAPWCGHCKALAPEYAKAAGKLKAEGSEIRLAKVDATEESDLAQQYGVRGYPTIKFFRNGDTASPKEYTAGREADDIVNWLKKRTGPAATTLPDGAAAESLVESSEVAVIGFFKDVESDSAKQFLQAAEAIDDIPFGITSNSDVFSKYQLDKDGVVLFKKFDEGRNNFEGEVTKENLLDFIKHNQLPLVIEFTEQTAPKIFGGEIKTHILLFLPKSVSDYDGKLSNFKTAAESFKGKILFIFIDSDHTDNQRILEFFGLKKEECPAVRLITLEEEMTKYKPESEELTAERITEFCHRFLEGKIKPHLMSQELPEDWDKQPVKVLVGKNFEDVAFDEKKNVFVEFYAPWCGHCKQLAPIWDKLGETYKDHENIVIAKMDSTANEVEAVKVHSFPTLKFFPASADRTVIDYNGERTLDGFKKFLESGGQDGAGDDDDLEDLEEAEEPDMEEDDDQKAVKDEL

ERp72 = target: T3, ERp72 (Homo sapiens, UniProt P13667); experiment: Di-E-GSSG fluorescence reductase assay, recombinant enzyme […]; format: biochemical
T3 construct: gene PDIA4
T3 sequence (P13667 21-645): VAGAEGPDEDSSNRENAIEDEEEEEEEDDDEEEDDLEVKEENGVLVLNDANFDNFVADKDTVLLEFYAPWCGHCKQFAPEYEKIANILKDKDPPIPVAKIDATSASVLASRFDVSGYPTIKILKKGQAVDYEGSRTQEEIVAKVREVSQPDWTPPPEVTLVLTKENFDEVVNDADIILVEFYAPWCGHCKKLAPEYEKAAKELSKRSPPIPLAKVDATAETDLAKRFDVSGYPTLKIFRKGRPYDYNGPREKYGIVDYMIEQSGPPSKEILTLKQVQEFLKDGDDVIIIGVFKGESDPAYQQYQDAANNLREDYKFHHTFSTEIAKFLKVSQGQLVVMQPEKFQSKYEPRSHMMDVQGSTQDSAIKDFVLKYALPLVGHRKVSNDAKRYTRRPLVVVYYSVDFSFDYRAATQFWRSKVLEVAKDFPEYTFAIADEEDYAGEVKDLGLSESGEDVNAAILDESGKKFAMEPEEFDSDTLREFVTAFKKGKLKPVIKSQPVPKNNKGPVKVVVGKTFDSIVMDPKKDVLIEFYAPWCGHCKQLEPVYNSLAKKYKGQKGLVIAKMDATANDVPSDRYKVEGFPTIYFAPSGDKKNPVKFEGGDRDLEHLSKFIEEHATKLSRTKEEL

Kd [1]: < 1.68 nM
SMILES: O=C(OC[C@H]1O[C@@H](OC(=O)c2cc(O)c(O)c(OC(=O)c3cc(O)c(O)c(O)c3)c2)[C@H](OC(=O)c2cc(O)c(O)c(OC(=O)c3cc(O)c(O)c(O)c3)c2)[C@@H](OC(=O)c2cc(O)c(O)c(OC(=O)c3cc(O)c(O)c(O)c3)c2)[C@@H]1OC(=O)c1cc(O)c(O)c(OC(=O)c2cc(O)c(O)c(O)c2)c1)c1cc(O)c(O)c(OC(=O)c2cc(O)c(O)c(O)c2)c1 [TA, Tannic acid]
Di-E-GSSG fluorescence reductase assay, recombinant enzyme 20 nmol/L (ERp57): TA impaired the reductase activity of other platelet PDI family members ERP57 and ERP72
Di-E-GSSG fluorescence reductase assay, recombinant enzyme 20 nmol/L (ERp72): TA impaired the reductase activity of other platelet PDI family members ERP57 and ERP72
